# Laboratory results published in patent US12390467B2, “Necroptosis inducers or autophagy inhibitors or a combination thereof” (The University of Toledo, priority 2018, dated 2025).
# What was measured:
# Type in all cases: cell-based
# [1] = system: MDA-MB231 (TNBC cell line); experiment: MTT cell viability assay, MDA-MB231; details: Homo sapiens, MDA-MB-231, 72 h, read-out: IC50 ± SD, MDA-MB231
# Experimental: (§1) The following cancer and non-cancer cell lines were used in the initial cytotoxicity screening of the TPH104 compounds: triple negative breast cancer (TNBC): MDA-MB468, MDA-MB 231, and BT-20; non-TNBC: MCF-7 and ZR-75-1; ovarian: Ov2008; prostate: DU145; colon: HCT-116, S1, and LOVO; lung: H460; normal kidney: HEK-293; normal breast: HMEC; and normal colon: CRL-1459. All cells were cultured in Dulbecco's modified Eagle medium (DMEM), supplemented with 10% fetal bovine serum (FBS), and 1% penicillin/streptomycin (P/S). Cells were allowed to grow as adherent monolayers in T25 flasks in a humidified incubator with 5% CO2 at 37° C. for a period of 24 h, unless otherwise specified for certain experiments.
# (§2) The MTT assay was used to determine the cytotoxicity of all of the compounds. Briefly, in a 96-well flat-bottom cell culture plate, the cells were seeded at a density between 3-5×10^3 cells/well (180 μl in each well) and incubated for 24 h (a hemocytometer was used for cell counting). The next day, the cells were incubated with different concentrations of the nine compounds (0, 0.1, 0.3, 1, 3, 10, 30, and 100 μM) for 72 h. After 72 h, 20 μl of 5 mg/ml of 3-(4,5-dimethylthiazol-2-yl)-2,5-diphenyltetrazolium bromide (MTT) was added to the plate and incubated with the cells for 3 h at 37° C. In this experiment, the living cells will reduce the soluble MTT dye to non-soluble purple formazan crystals. Following incubation, the media containing MTT removed via suction and 100 μL of 100% dimethyl sulfoxide (DMSO) was added to dissolve the formazan crystals. Subsequently, the plate was shaken for 2 minutes and the absorbance was measured at a wavelength of 570 nm using a SpectraMax iD3 Multi-Mode Microplate Reader (Molecular Devices, Sunnyvale, CA). The IC50 values of each compound were calculated and used to determine the selectivity ratio (IC50 in normal cells/IC50 in cancer cells) of each compound as previously described. Based on the results obtained from these experiments, the compound TPH104, which had the lowest IC50 value, was selected for further experiments.
# [2] = system: MDA-MB468 (TNBC cell line); experiment: MTT cell viability assay, MDA-MB468; details: Homo sapiens, MDA-MB-468, 72 h, read-out: IC50 ± SD, MDA-MB468
# Experimental: as §1, §2
# [3] = system: ZR-75-1 (non-TNBC cell line); experiment: MTT cell viability assay, ZR-75-1; details: Homo sapiens, ZR-75-1, 72 h, read-out: IC50 ± SD, ZR-75-1
# Experimental: as §1, §2
# [4] = system: MCF-7 (non-TNBC cell line); experiment: MTT cell viability assay, MCF-7; details: Homo sapiens, MCF7, 72 h, read-out: IC50 ± SD, MCF-7
# Experimental: as §1, §2
# [5] = system: normal human mammary epithelial cells (HMEC); experiment: MTT cell viability assay, HMEC; details: Homo sapiens, HMEC; MTT, 72 h; Normal; read-out: IC50 ± SD, HMEC
# Experimental: as §1, §2
# [6] = system: TNBC cell lines; experiment: Cytotoxicity screening (MTT), TNBC cell lines overall; details: classification of Table 1 cytotoxicity data
# Description: To this end, several commercial databases were searched, and 17 similar molecules from the VitasM database were retrieved with considerable structural diversity in terms of the substitution on the aryl ring A attached to the thienopyrimidine scaffold and aryl ring B attached to hydrazino moiety. Further, the biological evaluation of the 17 molecules sheds light on the structural features deemed important for the selective cytotoxicity shown by this class of molecules. With this understanding, the 17 molecules were subjected to a screening protocol comprising of two TNBC, two non-TNBC, and one normal cell lines.
# as §1, §2
# [7] = system: BT-20 cells; experiment: Acridine orange assay; details: 20 μM, 12 h, vs vehicle
# Experimental: The cell-permeant, nucleic acid binding dye, acridine orange (AO) was used to assess the effect of TPH104 on the activation of lysosomes. A 10 μg/ml stock solution was prepared using PBS. The TNBC cells were seeded in a 6-well plate as described in the cell cycle assay. After overnight incubation, cells were incubated with TPH104 (1, 2, 5 μM), vehicle or 20 uM of chloroquine (CQ, […]) for 12 h. The media was removed via suction and 1 ml of AO, diluted in 1:1000 in PBS, was added to each well and the plate was incubated for an additional 30 minutes. Cells were washed three times in PBS to remove excess dye. The cells from each well were captured from randomly selected fields using a fluorescent microscope (EVOS-FLC cell imaging system, Thermofisher scientific) at 40× to determine the AO fluorescence intensity which is positively correlated to lysosomal activation.
# [8] = system: BT-20 or MDA-MB468 cells; experiment: Cellular reactive oxygen species (ROS) detection assay (H2DCFDA); details: 2 μM
# Experimental: To assess the effect of TPH104 on the generation of ROS, a cell permeant, fluorogenic dye, 2′,7′-dichlorofluorescin diacetate, H2DCFDA, was used. A 5 mM stock solution was prepared using DMSO and PBS was used to prepare the 3 μM working solution of H2DCFDA. The TNBC cells were seeded in a 6-well plate as described in the cell cycle assay. After overnight incubation, cells were incubated with different TPH104 (1, 2, 5 μM) or vehicle for 12 h or with 2 μM of paclitaxel (positive control) for 2 h. The H2DCFDA dye (3 μM) was added to each well and the plate was incubated for an additional 30 minutes. Subsequently, cells were washed 3 times in PBS to remove excess H2DCFDA dye. Thereafter, cells from each well were captured from randomly selected fields using a fluorescent microscope (EVOS-FLC cell imaging system, Thermofisher scientific) at 40× to determine the 2′,7′-dichlorofluorescein (DCF) fluorescence intensity, which is positively correlated with the generation of ROS.
# [9] = system: RIP, p-RIP, MLKL, caspase 8 in MDA-MB468 cells; experiment: Western blot, necroptotic proteins, MDA-MB468; details: 100 μM
# Experimental: The TNBC cells were seeded in a culture flask and incubated for 24 h. The cells were then incubated with different concentrations of the lead compounds and re-incubated for an additional 12 or 24 h. […] The bicinchoninic acid (BCA) was used to determine protein concentration in the cell extracts (G-BIOSCIENCES, St. Louis, MO, USA). […] The membrane was blocked using 5% milk in Tris-buffered Tween 20 saline for 30 minutes. The membrane was then incubated overnight with primary antibodies against Bak, Bax, Bcl-2, caspase9, caspase 3, caspase 7, PARP, cytochrome c, N-cadherin, E-cadherin, c-Myc, dishevelled segment polarity protein 3 (DVL3), dishevelled segment polarity protein 2 (DVL2), Vimentin, mitogen-activated protein kinase kinase (MAPKK also known as MEK1/2), β-catenin, low-density lipoprotein receptor-related protein 6 (LRP6), receptor-interacting protein kinase (RIP), phosphorylated RIP (p-RIP), mixed lineage kinase domain like pseudokinase(MLKL), Caspase 8, light chain 3 (LC3), lysosomal-associated membrane protein 1 (LAMP1), unc-51 like autophagy activating kinase 1 (ULK1), ras associated protein 7 (Rab7), ras associated protein 5 (Rab5), Beclin 1, mechanistic target of rapamycin (mTOR), tumor necrosis factor alpha (TNF-α), tumor necrosis factor receptor 1 (TNFR1), tumor necrosis factor receptor 2 (TNFR2), Fas-associated protein with death domain (FADD), Fas ligand (Fas), TNF-related apoptosis-inducing ligand (TRAIL), death receptor 5 (DR5), Tumor necrosis factor receptor type 1-associated DEATH domain (TRADD), receptor-interacting protein kinase 3 (RIP3), β-actin or GAPDH in 1:1000 dilution in 5% milk or 5% BSA at 4° C. Horseradish peroxidase-labeled (HRP) anti-rabbit or anti-mouse secondary antibodies (1:5,000 dilution) were added and incubated the next day for an additional 1 h. A ChemiDoc™ MP System imaging system from Bio-Rad (Hercules, CA, USA) was used for blots reading. Blots were used to obtain the protein bands, followed by quantification of the bands using image J software (NIH, Bethesda, MD, USA). All of the data were expressed as the ratio of β-actin or GAPDH.
IC50 [1] [µM],IC50 [2] [µM],IC50 [4] [µM],Compound,IC50 [3] [µM],IC50 [5] [µM],potency compared to TPH104 [6],"AO fluorescence intensity, negative control [7]","DCF fluorescence (ROS), positive control [8]","expression of RIP, p-RIP, MLKL, and caspase 8 [9]"
0.28 ± 0.06,0.44 ± 0.26,6.96 ± 1.15,Oc1ccccc1/C=N/Nc1ncnc2scc(-c3ccc(Cl)cc3)c12 [TPH104a],2.29 ± 0.23,27.9 ± 8.95,comparable potency to that of TPH104,,,
0.25 ± 0.02,0.23 ± 0.05,1.52 ± 0.57,Oc1c(/C=N/Nc2ncnc3scc(-c4ccccc4)c23)cc2c3c1CCCN3CCC2 [TPH104b],1.18 ± 0.53,> 100,equipotent to TPH104,,,
0.23 ± 0.01,0.18 ± 0.02,> 100,COc1cccc(/C=N/Nc2ncnc3scc(-c4ccccc4)c23)c1O [TPH104c],10.7 ± 1.1,> 100,equipotent to TPH104,,,
2.29 ± 0.16,2.22 ± 1.82,> 100,Cc1ccc(-c2csc3ncnc(N/N=C/c4ccccc4O)c23)cc1 [TPH104d],6.05 ± 2.02,33.1 ± 2.33,moderate potency compared to TPH104,,,
> 100,> 100,> 100,COc1cc(OC)c(OC)cc1/C=N/Nc1ncnc2scc(-c3ccccc3)c12 [TPH104e],> 100,> 100,poor or no potency,,,
29.38 ± 0.08,7.87 ± 1.53,> 100,COc1ccccc1/C=N/Nc1ncnc2scc(-c3ccccc3)c12 [TPH104f],> 100,> 100,poor or no potency,,,
27.64 ± 0.15,27.3 ± 4.53,27.2 ± 2.92,COc1ccc(/C=N/Nc2ncnc3scc(-c4ccc(C)cc4)c23)c(OC)c1OC [TPH104g],28.9 ± 2.61,> 100,poor or no potency,,,
96.7 ± 0.14,> 100,63 ± 2.89,COc1cccc(/C=N/Nc2ncnc3scc(-c4ccccc4)c23)c1OC [TPH104h],> 100,> 100,poor or no potency,,,
> 100,> 100,> 100,COc1ccc(/C=N/Nc2ncnc3scc(-c4ccccc4)c23)c(OC)c1 [TPH104i],> 100,> 100,poor or no potency,,,
0.78 ± 0.28,0.56 ± 0.34,2.84 ± 0.96,Oc1ccccc1/C=N/Nc1ncnc2scc(-c3ccccc3)c12 [TPH104j],3.42 ± 1.53,4.52 ± 1.38,moderate potency compared to TPH104,,,
1.29 ± 0.52,0.91 ± 0.09,15.6 ± 6.5,Oc1cc(Br)ccc1/C=N/Nc1ncnc2scc(-c3ccccc3)c12 [TPH104k],6.07 ± 5.18,> 100,moderate potency compared to TPH104,,,
0.78 ± 0.38,1.47 ± 0.84,6.59 ± 0.58,Oc1ccc(/C=N/Nc2ncnc3scc(-c4ccccc4)c23)c(O)c1 [TPH104l],8.68 ± 1.04,> 100,moderate potency compared to TPH104,,,
23.1 ± 1.88,21.7 ± 0.3,> 100,CCOc1cc(/C=N/Nc2ncnc3scc(-c4ccccc4)c23)ccc1O [TPH104n],21.5 ± 3.67,> 100,poor or no potency,,,
0.43 ± 0.19,0.56 ± 0.24,1.22 ± 0.6,Cc1ccc(-c2csc3ncnc(N/N=C/c4ccc(C)cc4O)c23)cc1 [TPH104o],1.04 ± 0.54,> 100,moderate potency compared to TPH104,,,
62.2 ± 8.83,55.9 ± 0.98,> 100,COc1cc(OC)c(OC)cc1/C=N/Nc1ncnc2scc(-c3ccc(Cl)cc3)c12 [TPH104p],23 ± 0.59,> 100,poor or no potency,,,
18.6 ± 2.57,22.2 ± 0.78,23.5 ± 1.12,COc1cc(/C=N/Nc2ncnc3scc(-c4ccccc4)c23)ccc1O [TPH104q],21.4 ± 3.11,> 100,poor or no potency,,,
,,,"CCN(CC)CCCC(C)Nc1ccnc2cc(Cl)ccc12 (stereo not drawn) [chloroquine, reference compound]",,,,no significant change,,
,,,"CC(=O)O[C@H]1C(=O)[C@@]2(C)[C@H]([C@H](OC(=O)c3ccccc3)[C@]3(O)C[C@H](OC(=O)[C@H](O)[C@@H](NC(=O)c4ccccc4)c4ccccc4)C(C)=C1C3(C)C)[C@]1(OC(C)=O)CO[C@@H]1C[C@@H]2O [paclitaxel, reference compound]",,,,,significantly increased,
,,,"necrostatin-1 [nec-1, reference compound]",,,,,,significantly downregulated
